# According to EPA's ToxValDB 9.5 (doi:10.2903/j.efsa.2009.239r):
# Experiments:
# Anas platyrhynchos = conditions: oral, mortality
# Apis mellifera = conditions: acute; duration: 48 hours; dermal; mortality
# Bibionidae = conditions: chronic/long-term; duration: 28 days
# Canidae = conditions: oral, Dog Other, clinical signs
# Chrysoperla externa = conditions: not reported; mortality
# Coturnix japonica = conditions: acute, oral, mortality
# Daphnia magna = conditions: acute; duration: 48 hours; mortality
# Hypoaspis aculeifer = conditions: chronic/long-term, duration: 14 days
# Lepomis macrochirus = conditions: acute; duration: 96 hours; mortality
# Tagia sp. = conditions: acute; duration: 14 days; mortality
structure (smiles),measurement,setting,value
CCOC(=O)CCN(SN(C)C(=O)Oc1cccc2c1OC(C)(C)C2)C(C)C [Benfuracarb],LD50,"Anas platyrhynchos; acute, unspecified",19.8 mg/kg-day
same,LC50,"Anas platyrhynchos; short-term, feed",15 mg/kg-day
same,LD50,Apis mellifera,0.19 µg/piece
same,NOEC,Bibionidae,0.001 mg/L
same,NOAEL,"Canidae; chronic, duration: 6 months",1 mg/kg-day
same,NOAEL,"Canidae; chronic, duration: 24 months",1 mg/kg-day
same,NOAEL,"Canidae; subchronic, duration: 13 weeks",1 mg/kg-day
same,LD50,Chrysoperla externa,5.2 g/ha
same,LC50,"Colinus virginianus; acute, oral, diet, mortality",179 mg/kg-day
same,NOEL,Colinus virginianus; reproduction developmental,8.93 mg/kg-day
same,LD50,Coturnix japonica; F,39.9 mg/kg-day
same,LD50,Coturnix japonica; M,48.3 mg/kg-day
same,LC50,Daphnia magna,0.0099 µg/mL
same,LEL,Hypoaspis aculeifer; mortality,1000 g/ha
same,LEL,Hypoaspis aculeifer; reproduction,1000 g/ha
same,LC50,Lepomis macrochirus,0.017 µg/mL
same,LD50,"Rattus norvegicus; acute, oral, mortality",205 mg/kg-day
same,NOAEL,"Rattus norvegicus; reproduction developmental, reproduction",1.2 mg/kg-day
same,NOAEL,"Rattus norvegicus; short-term, duration: 28 days, clinical signs",1.8 mg/kg-day
same,LC50,Tagia sp.,58 mg/kg
same,NOEC,Tagia sp.,< 10 mg/kg
